Data set [1] relates to 3T3‐L1 cells. Briefly: MTT cell viability. The data set is classed as cell-based. The conditions noted are these: 3T3 cells, 24 h treatment. The method, then:
The viability of cells treated with macrocyclam derivatives was assessed by MTT and apoptosis detection assays, and by live/dead cell staining. The 3T3‐L1 cells were seeded onto 24‐well plates at a density of 1 × 10^5 cells per well for 24 h and the cells were treated with macrocyclam derivatives for 24 h. MTT (3‐(4,5‐dimethylthiazol‐2‐yl)‐2,5‐diphenyltetrazolium bromide) solution (final concentration, 500 μM) was added to each well and the cells incubated for 2 h. After aspiration of medium, the cells were dissolved in 200 μl dimethyl sulfoxide (DMSO; Sigma‐Aldrich). Formazan crystals generated by metabolically active cells were quantified by measuring optical density at 570 nm using a microplate reader (Tecan Group Ltd., Seestrasse, Mannedorf, Switzerland). Cell viability was analyzed by calculating the percent optical density of treated cells relative to control cells. Live and dead cell populations were determined using EZ‐view Live/Dead Cell Staining Kits (Biomax, Seoul, Republic of Korea). […] The absorbance of each well was measured at 490/545 nm using fluorescence microscopy (IX70; Olympus, Japan). Cell apoptosis was analyzed using a FACSCalibur flow cytometer (BD Biosciences, CA, USA) with annexin V staining. […] Cell surface expression was analyzed using a FACSCalibur flow cytometer (BD Biosciences), with the results analyzed using FlowJo software (BD Biosciences).

Data set [2] deals with SCC7 tumor. The data set is classed as in vivo, mice. The conditions noted are these: for tumor/normal tissue (TN) ratio: Gd 0.7 mg/kg, T1-weighted signal intensity. The method, then: (§1) Five‐week‐old Balb/c or athymic nude mice (Raon Bio, Yongin, Republic of Korea) were used for in vivo experiments. All studies using animals conformed to the Guidelines for the Care and Use of Laboratory Animals of the Institute of Laboratory Animal Resources at Seoul National University (approved animal experimental protocol number, SNU‐190821‐5).
(§2) The biodistribution of macrocyclam derivatives was determined by MRI and positron emission tomography/computed tomography (PET/CT) scanning. Five‐week‐old female Balb/c nude mice were subcutaneously inoculated with 1 × 10^6 SCC7 cells on the dorsal left side. When tumor volumes reached 150 mm^3, samples were intravenously administered. For in vivo MRI, Gd@NrMC or Gd@ErMC was injected at a Gd dose of 0.7 mg/kg. The mice were monitored in vivo at different time points using an MRI scanner (Bruker‐Biospin) equipped with an animal‐imaging coil. For PET/CT imaging, ^64Cu@NrMC or ^64Cu@ErMC was injected at a ^64Cu dose of approximately 240 μCi/mouse, and the mice were monitored in vivo at different time point using a PET/CT scanner (Inveon microPET/CT scanner, Siemens Medical Solutions, Malvern, PA, USA).

In data set [3] the test system is 3T3‐L1 cells. Briefly: Enzyme-dependent cellular uptake of Gd by ICP-MS, MMP-spiked versus blank media. The data set is classed as cell-based. The conditions noted are these: 3T3-L1 cells pretreated with MMP-9, ICP-MS. On the procedure:
(§3) Cellular uptake was assessed by in vitro MR imaging, ICP‐MS, and scanning electron microscopy combined with energy‐dispersive x‐ray spectroscopy (SEM/EDS) analysis. For in vitro MR imaging, murine squamous cell carcinoma SCC7 cells were seeded onto six‐well plates at a density of 3 × 10^5 cells per well. After 24 h, the cells were treated with Gadovist or macrocyclam derivatives at Gd concentrations of 100 μM for 24 h. MR images were obtained and analyzed using an MRI scanner (Bruker‐Biospin). To assess enzyme‐dependent cellular uptake, 3T3‐L1 cells were pretreated with various concentrations of MMP‐9 (Sigma‐Aldrich). For ICP‐MS analysis, the cells were washed and completely dissolved with 90% nitric acid (Sigma‐Aldrich). To quantify Gd taken up by cells, the dissolved cells were digested with 1 ml of aqua regia (HCl: HNO3 = 3: 1, m/m) at 130°C. The solutions were completely dried and redissolved in deionized water, and the amounts of Gd were measured by ICP‐MS (Varian 820‐MS). For SEM/EDS analysis, SCC7 cells were seeded in cover glass‐inserted 24‐well plates at a density of 2 × 10^5 cells per well, followed by treatment of the samples for 24 h. A field‐emission SEM system (Supra 55VP; Carl Zeiss, Oberkochen, Germany) was used for SEM imaging combined with EDS mapping.

A short description of data set [4]: Gd loading of macrocyclam derivatives by ICP-MS. The data set is classed as physicochemical. The conditions noted are these: gadolinium chloride in sodium acetate buffer pH 5.0, 2 h at 80°C, unloaded Gd removed on G-25 column. On the procedure: (§4) Metal ions are complexed with macrocyclam derivatives in acidic condition (Figure 2c). The lyophilized macrocyclam derivatives were dissolved in distilled water. A 100 nmol aliquot of NrMC or ErMC was mixed with gadolinium chloride (Sigma‐Aldrich) or radioactive copper‐64 chloride in sodium acetate buffer (pH 5.0) and incubated for 2 h at 80°C. Unloaded Gd was removed using a PD‐SpinTrap™ G‐25 column (GE Healthcare, Little Chalfont, UK). The loading amount of Gd in each sample was measured by inductively coupled plasma mass spectrometry (ICP‐MS, Varian 820‐MS; Varian, Palo Alto, CA, USA). Gd chelation consists of a reaction between the Gd^3+ and arsenazo III dye under acidic conditions to form a blue–purple complex. Radioactivity was measured using a dose calibrator (Biodex Medical Systems, Shirley, NY, USA).

Data set [5] can be described thus: Zeta potential by laser Doppler microelectrophoresis. The class given is physicochemical. On the procedure:
(§5) The size, zeta potential, and morphology of each macrocyclam derivative were determined. Size was measured using dynamic light scattering, and zeta potential was assessed by laser Doppler microelectrophoresis at an angle of 22°, with both size and zeta potential being measured using an ELS8000 instrument (Photal, Osaka, Japan). The relaxation times of Gd‐loaded materials were examined using a 7 T/20 MRI instrument (Bruker‐Biospin, Ettlingen, Germany) at 37°C. Each sample was serially diluted to Gd concentrations of 37, 75, 150, and 300 μM, and the T1‐weighted MR signal intensities of 200‐μl samples were determined. The relaxation rate, r1 (r1 = 1/T1), for each preparation was calculated from acquired images.

Data set [6] can be described thus: In vivo safety, H&E histology of major organs. The conditions noted are these: Balb/c mice, intravenous, Gd 3.5 mg/kg, 1 week, n = 4 per group. On the procedure: (§6) The in vivo safety of macrocyclam derivatives was determined by histological and serological analyses. Five‐week‐old Balb/c mice were intravenously administered with at Gd@NrMC or Gd@ErMC at a Gd dose of 3.5 mg/kg. Briefly, NrMC (470 nmol) or ErMC (650 nmol) was mixed with gadolinium chloride in sodium acetate buffer (pH 5.0) and incubated for 2 h at 80°C. Unloaded Gd was removed using a PD‐SpinTrap™ G‐25 column. The samples including 70 μg of Gd were intravenously administered to mice. After 1 week, animals (n = 4 per group) were euthanized, and their organs (heart, lung, liver, spleen, and kidney) and sera were collected for histopathological and biochemical evaluation. Extracted organs were fixed in 10% formalin solution for 24 h and embedded in paraffin. For hematoxylin and eosin staining, each organ section was immersed in filtered Harris hematoxylin for 10 s and then in eosin for 30 s. The stained slides were visualized using a Vectra 3.0 Automated Quantitative Pathology Imaging System (PerkinElmer, Hopkinton, MA, USA), and the images were analyzed using InForm v2.4.11. software (PerkinElmer). The serum concentrations of alanine aminotransferase (ALT), aspartate aminotransferase (AST), […] (ALP), blood urea nitrogen (BUN), and total bilirubin (TBIL) were measured using an automatic chemistry analyzer (DRI‐CEHM 3500s; Fujifilm, Kanagawa, Japan).

The subject of data set [7] is SCC7 cells. Briefly: SEM/EDS elemental mapping of treated cells. The data set is classed as cell-based, murine. The conditions noted are these: 24 h. On the procedure: as §3
Data set [8] can be described thus: Hydrodynamic size by dynamic light scattering. The class given is physicochemical. The method, then:
as §5

The nature of data set [9]: Size stability of nanostructure in TDW, PBS or 10% serum. The data set is classed as physicochemical. The conditions noted are these: size measured in TDW, PBS or 10% serum (Figure S1). The method, then:
Fig. S1. Serum stability of macrocyclic complex
Size of ErMC was measured in TDW, PBS, or 10% serum condition.

Data set [10] has as its system SCC7 cells. Briefly: Cellular uptake of Gd by ICP-MS. The class given is cell-based, murine. The conditions noted are these: Gd 100 μM, 24 h. The method, then:
as §3

Data set [11] is described as follows: T1 relaxivity, 7 T MRI. The class given is physicochemical. The conditions noted are these: 37°C, Gd 37, 75, 150 and 300 μM. On the procedure: as §5
Data set [12] concerns SCC7 cells. The data set is described as follows: Cellular uptake, in vitro T1 MR imaging. The data set is classed as cell-based, murine. The conditions noted are these: Gd 100 μM, 24 h. On the procedure: as §3
Data set [13] in a line: In vivo safety, serum biochemistry (ALT, AST, ALP, BUN, TBIL). The conditions noted are these: Balb/c mice, Gd 3.5 mg/kg, 1 week after injection, compared with untreated mice. On the procedure:
as §6

A short description of data set [14]: Copper-64 chloride loading, radioactivity by dose calibrator. The conditions noted are these: sodium acetate buffer pH 5.0, 2 h at 80°C. The data set is classed as physicochemical. The method, then:
as §4

Data set [15] deals with SCC7 tumor. Briefly: In vivo PET/CT imaging of tumor-bearing mice. On the procedure:
as §1, §2

Where two headings read alike, the source gives them in different places. Ends that are not written are not given here.

We go through 3 molecules from article PMC10487310, “Enzyme‐responsive macrocyclic metal complexes for biomedical imaging” (Bioengineering & Translational Medicine, 2022).

In the case of `O=C([O-])CN1CCN(CC(=O)[O-])CCN([C@H](CO)[C@H](O)CO)CCN(CC(=O)[O-])CC1.[Gd+3]` (racemic) [Gadovist, reference compound], the “viability of cells (MTT)” value in data set [1] is listed as “no effect”. Besides, the “change of tumor/normal tissue (TN) ratio over time” value in data set [2] (1 h to 24 h after intravenous injection) is “not enhanced over time”.
“GGPLGVRGGGGG-OH [Gd@ErMC, Gd loaded into enzyme-responsive macrocyclam modified with a PEGylated MMP-cleavable peptide; self-assembled nanoparticles]”: the “Gd accumulation in cells treated with MMP relative to blank media” value in data set [3] is 7.2 fold. Also, in data set [4], the gadolinium loading capacity turned out to be 29.3 ± 14.5 mol%. In data set [5], the zeta potential result was “slightly positive”. Also, the “histology of heart, lungs, liver, spleen and kidneys” value in data set [6] is recorded as “no visible microscopically abnormal features”. Also, the “colocalization of Gd on the cell surface (EDS-SEM)” value in [7] is reported as “bound to cell membranes”. In data set [8], this molecule displayed a hydrodynamic size of 310.2 ± 50.2 nm. For the same molecule, the “tumor/normal tissue (TN) ratio” value came to 1.8 in data set [2] (1 h after intravenous injection) and 3.4 in [2] (24 h after intravenous injection). The “nanostructure in physiological conditions” value in data set [9] was “maintained”. In addition, the “intracellular Gd concentration relative to Gd@NrMC-treated cells” value in data set [10] turned out to be 32.2 fold. For the same molecule, in [11], the “longevity relaxivity (r1)” value came to 33.4 mM⁻¹ s⁻¹. In data set [12], the “T1 MRI signal of MMP-overexpressing cells” value is reported as “higher for the Gd@ErMC group than for other groups”. Moreover, the “liver and kidney function enzyme levels in blood” value in [13] is listed as “within normal range”.
Take GGPLGVRGGGGG-OH [^64Cu@ErMC]: the “copper-64 chloride loading capacity” value in [14] is listed as 22.4%. For the same molecule, the entries for the “percentage of injected 64Cu in tumors relative to 64Cu@NrMC-treated mice” value in data set [15] (24 h post-dose) and in data set [15] (48 h post-dose) were 2.9 fold and 2 fold, respectively. The “PET signal in tumor tissue” value in [15] (intravenous, approximately 240 μCi/mouse, SCC7 tumor-bearing mice) is “enhanced signals”.
